Experimental findings from PubChem BioAssay AID278 (DTP/NCI, 2004) are described below.

For the test, the system named is nude mice, A549 intrarenal xenograft, tumor weight change. Nature of the test: NCI In Vivo Anticancer Drug Screen. Data for tumor model A549 Human Adenocarcinoma of Lung with characteristics of Type II Alveolar Epithelial cells (intrarenal inoculation) in NU/NU BALB/C (nude) mice. The conditions noted are these: endpoint: mean tumor weight change, schedule: Q04DX003 (ip), higher = larger tumour. In a few lines:
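Activity is expressed as T/C: the treated-group value over the vehicle-treated control value. The measure was survival or tumor size in mice carrying transplantable tumors.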

The mark [1] stands for this setting: dose: 150.0 mg/kg/injection, vehicle: Klucel (hydroxypropylcellulose) (HPC).
[2] abbreviates: dose: 25.0 mg/kg/injection, vehicle: water.
Setting [3] is: dose: 50.0 mg/kg/injection, vehicle: water.
Where [4] appears, read: dose: 25.0 mg/kg/injection, vehicle: saline with Tween-80.
The mark [5] stands for this setting: dose: 150.0 mg/kg/injection, vehicle: saline with Tween-80.
[6] abbreviates: dose: 300.0 mg/kg/injection, vehicle: saline with Tween-80.
The mark [7] stands for this setting: dose: 12.5 mg/kg/injection, vehicle: saline with Tween-80.

Values joined by “and” are separate entries in the source; they are usually repeats but may differ in a detail not shown here. Equal entries are not always repeated. Inconclusive results are not listed.

On to `COc1cccc2c1C(=O)c1c(O)c3c(c(O)c1C2=O)C[C@@](O)(C(=O)CO)C[C@@H]3OC1CC(N)C(O)C(C)O1` (stereo partly drawn), for which the T/C is, setting by setting: (dose: 2.0 mg/kg/injection, vehicle: saline) 11 % of control and 13 % of control and 25 % of control; (dose: 4.0 mg/kg/injection, vehicle: saline) 9 % of control and 13 % of control and 20 % of control; (dose: 8.0 mg/kg/injection, vehicle: saline) 7 % of control and -9 % of control and -8 % of control.
In the case of `CCCCN1C(=O)N(c2ccc(OCC)cc2)C2N(CCCC)C1C(C)(C)C2(C)C` (stereo not drawn), the T/C reads like this: (dose: 15.0 mg/kg/injection, vehicle: saline with Tween-80) 60 % of control; (dose: 30.0 mg/kg/injection, vehicle: saline with Tween-80) 51 % of control; (dose: 60.0 mg/kg/injection, vehicle: saline with Tween-80) 88 % of control; (dose: 120.0 mg/kg/injection, vehicle: saline with Tween-80) 94 % of control.
For the molecule `CCOC1NC(=O)Oc2ccccc21` (stereo not drawn), the T/C by setting is: under setting [1], 43 % of control; (dose: 600.0 mg/kg/injection, vehicle: Klucel (hydroxypropylcellulose) (HPC)) 54 % of control.
For `Nc1ncnc2c1nc(Cl)n2C1OC2COP(=O)(O)OC2C1O` (stereo not drawn), the T/C is 198 % of control under setting [2] and 85 % of control under setting [3].
As for `Nc1ccc(S(=O)(=O)Nc2cnc3c(Cl)cccc3n2)cc1`, the T/C is 70 % of control (dose: 220.0 mg/kg/injection, vehicle: saline); 53 % of control (dose: 315.0 mg/kg/injection, vehicle: saline); 43 % of control (dose: 450.0 mg/kg/injection, vehicle: saline); 52 % of control (dose: 642.9 mg/kg/injection, vehicle: saline).
Turning to `Cc1c(O)/c(=C\O)c2nc3c(=O)ccc(C(=O)NCCN(C)C)c3[nH]c2c1=O`, the T/C reads like this: under setting [3], 120 % of control; (dose: 100.0 mg/kg/injection, vehicle: water) 48 % of control; (dose: 120.0 mg/kg/injection, vehicle: water) 52 % of control and 75 % of control.
As to `COC(=O)C1(F)C(=O)NC(=O)NC1OC` (stereo not drawn), the T/C is 115 % of control (dose: 400.0 mg/kg/injection, vehicle: Klucel (hydroxypropylcellulose) (HPC)); 116 % of control (dose: 800.0 mg/kg/injection, vehicle: Klucel (hydroxypropylcellulose) (HPC)); 94 % of control (dose: 1600.0 mg/kg/injection, vehicle: Klucel (hydroxypropylcellulose) (HPC)).
Consider `CC(/C=C/C=C/C=C/C=C/C=C/C(O)=C1/C(=O)C(CCC(=O)O)N(C)C1=O)=C\C(C)C(OC1CC(O)C(O)C(C)O1)C(C)C` (stereo not drawn), for which the T/C by setting is: (dose: 15.88 mg/kg/injection, vehicle: water) 60 % of control; (dose: 31.75 mg/kg/injection, vehicle: water) 61 % of control; (dose: 62.5 mg/kg/injection, vehicle: water) 110 % of control; (dose: 75.0 mg/kg/injection, vehicle: water) 37 % of control.
With `CCCCCNc1ncnc2c(C)[nH]nc12`, the T/C (dose: 37.5 mg/kg/injection, vehicle: Klucel (hydroxypropylcellulose) (HPC)) was 82 % of control; the T/C (dose: 75.0 mg/kg/injection, vehicle: Klucel (hydroxypropylcellulose) (HPC)) was 105 % of control; the T/C under setting [1] is 100 % of control.
Take `Cn1c2ccccc2c2ccc3c(c21)C(=O)C=CC3=O`: the T/C is 61 % of control under setting [4]; 26 % of control (dose: 50.0 mg/kg/injection, vehicle: saline with Tween-80); 38 % of control (dose: 100.0 mg/kg/injection, vehicle: saline with Tween-80); 35 % of control (dose: 200.0 mg/kg/injection, vehicle: saline with Tween-80).
On to `Nc1ccc2ccc(NS(=O)(=O)N3CCCCC3)cc2c1`, for which the T/C was 94 % of control under setting [5]; 60 % of control under setting [6]; 32 % of control (dose: 600.0 mg/kg/injection, vehicle: saline with Tween-80).
`Cc1cc(O)c2c(c1O)C(=O)C13C(=C2O)C(=O)C2C(O)C1C1C(O)C3C(=O)C3=C(O)c4c(O)cc(C)c(O)c4C(=O)C321` (stereo not drawn): the T/C (dose: 1.0 mg/kg/injection, vehicle: saline with Tween-80) was 172 % of control and the T/C (dose: 2.0 mg/kg/injection, vehicle: saline with Tween-80) was 112 % of control.
As to `CCCCCCCCCCCCCCCCCCOCC(CO)OC` (stereo not drawn), the T/C is, setting by setting: under setting [5], 47 % of control and 53 % of control; under setting [6], 56 % of control and 73 % of control.
With `c1ccc2[nH]c(CN(CCN(Cc3nc4ccccc4[nH]3)Cc3nc4ccccc4[nH]3)Cc3nc4ccccc4[nH]3)nc2c1`, the T/C (dose: 6.25 mg/kg/injection, vehicle: DMSO) is 124 % of control; the T/C (dose: 12.5 mg/kg/injection, vehicle: DMSO) was 102 % of control; the T/C (dose: 25.0 mg/kg/injection, vehicle: DMSO) is 157 % of control.
With `Nc1cc2c(cc1Br)-c1c(C(=O)O)cccc1C2O` (stereo not drawn), the T/C is 74 % of control (dose: 150.0 mg/kg/injection, vehicle: sodium bicarbonate); 78 % of control (dose: 300.0 mg/kg/injection, vehicle: sodium bicarbonate); 68 % of control (dose: 600.0 mg/kg/injection, vehicle: sodium bicarbonate); 56 % of control (dose: 1200.0 mg/kg/injection, vehicle: sodium bicarbonate).
With `COc1cc2c(cc1OC)[C@@H]1C(=O)c3ccc4c(c3O[C@@H]1CO2)C[C@H](C(C)C)O4`, the T/C reads like this: (dose: 21.25 mg/kg/injection, vehicle: Klucel (hydroxypropylcellulose) (HPC)) 90 % of control; (dose: 42.5 mg/kg/injection, vehicle: Klucel (hydroxypropylcellulose) (HPC)) 87 % of control; (dose: 85.0 mg/kg/injection, vehicle: Klucel (hydroxypropylcellulose) (HPC)) 37 % of control.
`CC1(O)C=CC(=O)C=C1`: the T/C was 121 % of control under setting [2] and 100 % of control under setting [3].
Regarding `O=C([O][Bi]([c]1ccccc1)[c]1ccccc1)c1ccccc1`, the T/C reads like this: (dose: 25.0 mg/kg/injection, vehicle: Klucel (hydroxypropylcellulose) (HPC)) 83 % of control; (dose: 50.0 mg/kg/injection, vehicle: Klucel (hydroxypropylcellulose) (HPC)) 76 % of control; (dose: 200.0 mg/kg/injection, vehicle: Klucel (hydroxypropylcellulose) (HPC)) 73 % of control.
Consider `C/C(=N\NC(=S)N1CC2CCC(CC2)C1)c1cccc(C)n1`, for which the T/C was 114 % of control under setting [7] and 81 % of control under setting [4].
Take `O=C(/C=C/c1cccnc1)/C=C/c1cccnc1`: the T/C runs as follows: (dose: 12.5 mg/kg/injection, vehicle: Klucel (hydroxypropylcellulose) (HPC)) 91 % of control; (dose: 100.0 mg/kg/injection, vehicle: Klucel (hydroxypropylcellulose) (HPC)) 54 % of control.
On to `C=CCSC(C)=O`, for which the T/C is, setting by setting: (dose: 62.5 mg/kg/injection, vehicle: suspension in saline) 83 % of control; (dose: 125.0 mg/kg/injection, vehicle: suspension in saline) 53 % of control; (dose: 250.0 mg/kg/injection, vehicle: suspension in saline) 90 % of control; (dose: 500.0 mg/kg/injection, vehicle: suspension in saline) 71 % of control.
With `C[n+]1c(-c2ccc(NC(=O)c3ccc(C(=O)Nc4ccc(-c5cn6ccccc6[n+]5C)cc4)cc3)cc2)cn2ccccc21`, the T/C is 47 % of control under setting [7] and 49 % of control under setting [4].
Consider `O=C(O)C1CC(O)CN1` (stereo not drawn), for which the T/C by setting is: (dose: 150.0 mg/kg/injection, vehicle: saline) 70 % of control; (dose: 300.0 mg/kg/injection, vehicle: saline) 65 % of control; (dose: 600.0 mg/kg/injection, vehicle: saline) 110 % of control; (dose: 1200.0 mg/kg/injection, vehicle: saline) 71 % of control.
